Results: PubChem BioAssay AID2060488 (Molecular Pharmacology Branch, DTP, NCI, 2025)

Tested on: 966289-007-R4-J1-PDC complex spheroid viability
Assay: Anticancer human tumor 966289-007-R4-J1-PDC patient-derived pancreatic adenocarcinoma cell line growth inhibition [GQUAD]
Conditions: for IC50: curve of first compound; for viability, T/C: stronger effect = lower value
Outline: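 Viability of tumor cells grown as complex spheroids with endothelial and stromal cells, exposed to drug combinations. Top concentration at or near clinical Cmax (else 10 microM), diluted in half-log increments.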

[1] = second compound 0.0316 µM, first compound 0.0316 µM
[2] = second compound 0.0316 µM, first compound 0.1 µM
[3] = second compound 0.0316 µM, first compound 0.316 µM
[4] = second compound 0.0316 µM, first compound 1 µM
[5] = second compound 0.0316 µM, first compound 3.16 µM
[6] = second compound 0.0316 µM, first compound 10 µM
[7] = second compound 0.1 µM, first compound 0.0316 µM
[8] = second compound 0.1 µM, first compound 0.1 µM
[9] = second compound 0.1 µM, first compound 0.316 µM
[10] = second compound 0.1 µM, first compound 1 µM
[11] = second compound 0.1 µM, first compound 3.16 µM
[12] = second compound 0.1 µM, first compound 10 µM
[13] = second compound 0.316 µM, first compound 0.0316 µM
[14] = second compound 0.316 µM, first compound 0.1 µM
[15] = second compound 0.316 µM, first compound 0.316 µM
[16] = second compound 0.316 µM, first compound 1 µM
[17] = second compound 0.316 µM, first compound 3.16 µM
[18] = second compound 0.316 µM, first compound 10 µM
[19] = second compound 1 µM, first compound 0.0316 µM
[20] = second compound 1 µM, first compound 0.1 µM
[21] = second compound 1 µM, first compound 0.316 µM
[22] = second compound 1 µM, first compound 1 µM
[23] = second compound 1 µM, first compound 3.16 µM
[24] = second compound 1 µM, first compound 10 µM
[25] = second compound 3.16 µM, first compound 0.0316 µM
[26] = second compound 3.16 µM, first compound 0.1 µM
[27] = second compound 3.16 µM, first compound 0.316 µM
[28] = second compound 3.16 µM, first compound 1 µM
[29] = second compound 3.16 µM, first compound 3.16 µM
[30] = second compound 3.16 µM, first compound 10 µM
[31] = second compound 10 µM, first compound 0.0316 µM
[32] = second compound 10 µM, first compound 0.1 µM
[33] = second compound 10 µM, first compound 0.316 µM
[34] = second compound 10 µM, first compound 1 µM
[35] = second compound 10 µM, first compound 3.16 µM
[36] = second compound 10 µM, first compound 10 µM
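Further: spheroids exposed to the agents for seven days before readout.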
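Wherever viability, T/C is given: percent viability relative to DMSO vehicle control wells taken as 100%.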

## CC(C)(O)C1CCC(Nc2ccc3ncc(-c4cccc(C(F)(F)F)c4)n3n2)CC1 (stereo not drawn) + Cc1[nH]c2ccc(F)cc2c1-c1nc2c3cccnc3c3ncccc3c2[nH]1
Second compound 0.0316 µM
  IC50: > 10000 nM
Second compound 0.1 µM
  IC50: 3110 nM
Second compound 0.316 µM
  IC50: 2960 nM
Second compound 1 µM
  IC50: 2470 nM
Second compound 3.16 µM
  IC50: 2500 nM
Second compound 10 µM
  IC50: 2370 nM
[1]
  viability, T/C: 108%
[2]
  viability, T/C: 105%
[3]
  viability, T/C: 109%
[4]
  viability, T/C: 89%
[5]
  viability, T/C: 71.7%
[6]
  viability, T/C: 55.3%
[7]
  viability, T/C: 104%
[8]
  viability, T/C: 100%
[9]
  viability, T/C: 99.8%
[10]
  viability, T/C: 93.2%
[11]
  viability, T/C: 47.5%
[12]
  viability, T/C: 51.3%
[13]
  viability, T/C: 101%
[14]
  viability, T/C: 111%
[15]
  viability, T/C: 102%
[16]
  viability, T/C: 105%
[17]
  viability, T/C: 40.7%
[18]
  viability, T/C: 52.6%
[19]
  viability, T/C: 106%
[20]
  viability, T/C: 106%
[21]
  viability, T/C: 98.9%
[22]
  viability, T/C: 110%
[23]
  viability, T/C: 28.9%
[24]
  viability, T/C: 41%
[25]
  viability, T/C: 104%
[26]
  viability, T/C: 107%
[27]
  viability, T/C: 113%
[28]
  viability, T/C: 113%
[29]
  viability, T/C: 22.5%
[30]
  viability, T/C: 47.1%
[31]
  viability, T/C: 97.1%
[32]
  viability, T/C: 111%
[33]
  viability, T/C: 112%
[34]
  viability, T/C: 109%
[35]
  viability, T/C: 26.2%
[36]
  viability, T/C: 35.4%

## CCCS(=O)(=O)Nc1ccc(F)c(C(=O)c2c[nH]c3ncc(-c4ccc(Cl)cc4)cc23)c1F + Cc1[nH]c2ccc(F)cc2c1-c1nc2c3cccnc3c3ncccc3c2[nH]1
Second compound 0.0316 µM
  IC50: 9390 nM
Second compound 0.1 µM
  IC50: 8560 nM
Second compound 0.316 µM
  IC50: 8400 nM
Second compound 1 µM
  IC50: 8670 nM
Second compound 3.16 µM
  IC50: 7250 nM
Second compound 10 µM
  IC50: 7830 nM
[1]
  viability, T/C: 111%
[2]
  viability, T/C: 105%
[3]
  viability, T/C: 116%
[4]
  viability, T/C: 113%
[5]
  viability, T/C: 113%
[6]
  viability, T/C: 46.3%
[7]
  viability, T/C: 101%
[8]
  viability, T/C: 110%
[9]
  viability, T/C: 113%
[10]
  viability, T/C: 112%
[11]
  viability, T/C: 111%
[12]
  viability, T/C: 40.5%
[13]
  viability, T/C: 101%
[14]
  viability, T/C: 108%
[15]
  viability, T/C: 110%
[16]
  viability, T/C: 114%
[17]
  viability, T/C: 112%
[18]
  viability, T/C: 39.3%
[19]
  viability, T/C: 97.6%
[20]
  viability, T/C: 112%
[21]
  viability, T/C: 115%
[22]
  viability, T/C: 114%
[23]
  viability, T/C: 116%
[24]
  viability, T/C: 41.4%
[25]
  viability, T/C: 110%
[26]
  viability, T/C: 114%
[27]
  viability, T/C: 115%
[28]
  viability, T/C: 110%
[29]
  viability, T/C: 108%
[30]
  viability, T/C: 27.6%
[31]
  viability, T/C: 104%
[32]
  viability, T/C: 111%
[33]
  viability, T/C: 115%
[34]
  viability, T/C: 112%
[35]
  viability, T/C: 112%
[36]
  viability, T/C: 33.5%

## Cc1[nH]c2ccccc2c1CCNCc1ccc(/C=C/C(=O)NO)cc1 + Cc1[nH]c2ccc(F)cc2c1-c1nc2c3cccnc3c3ncccc3c2[nH]1
Second compound 0.0316 µM
  IC50: 76 nM
Second compound 0.1 µM
  IC50: 92.8 nM
Second compound 0.316 µM
  IC50: 95.8 nM
Second compound 1 µM
  IC50: 127 nM
Second compound 3.16 µM
  IC50: 79.7 nM
Second compound 10 µM
  IC50: 104 nM
Second compound 0.0316 µM, first compound 0.000999 µM
  viability, T/C: 110%
Second compound 0.0316 µM, first compound 0.00316 µM
  viability, T/C: 104%
Second compound 0.0316 µM, first compound 0.00999 µM
  viability, T/C: 107%
[1]
  viability, T/C: 103%
Second compound 0.0316 µM, first compound 0.0999 µM
  viability, T/C: 33.6%
[3]
  viability, T/C: 4.95%
Second compound 0.1 µM, first compound 0.000999 µM
  viability, T/C: 111%
Second compound 0.1 µM, first compound 0.00316 µM
  viability, T/C: 109%
Second compound 0.1 µM, first compound 0.00999 µM
  viability, T/C: 111%
[7]
  viability, T/C: 105%
Second compound 0.1 µM, first compound 0.0999 µM
  viability, T/C: 46.2%
[9]
  viability, T/C: 5.29%
Second compound 0.316 µM, first compound 0.000999 µM
  viability, T/C: 106%
Second compound 0.316 µM, first compound 0.00316 µM
  viability, T/C: 108%
Second compound 0.316 µM, first compound 0.00999 µM
  viability, T/C: 113%
[13]
  viability, T/C: 107%
Second compound 0.316 µM, first compound 0.0999 µM
  viability, T/C: 47.8%
[15]
  viability, T/C: 6.15%
Second compound 1 µM, first compound 0.000999 µM
  viability, T/C: 98.5%
Second compound 1 µM, first compound 0.00316 µM
  viability, T/C: 103%
Second compound 1 µM, first compound 0.00999 µM
  viability, T/C: 111%
[19]
  viability, T/C: 108%
Second compound 1 µM, first compound 0.0999 µM
  viability, T/C: 61.5%
[21]
  viability, T/C: 5.78%
Second compound 3.16 µM, first compound 0.000999 µM
  viability, T/C: 107%
Second compound 3.16 µM, first compound 0.00316 µM
  viability, T/C: 114%
Second compound 3.16 µM, first compound 0.00999 µM
  viability, T/C: 117%
[25]
  viability, T/C: 110%
Second compound 3.16 µM, first compound 0.0999 µM
  viability, T/C: 35.4%
[27]
  viability, T/C: 5.51%
Second compound 10 µM, first compound 0.000999 µM
  viability, T/C: 110%
Second compound 10 µM, first compound 0.00316 µM
  viability, T/C: 104%
Second compound 10 µM, first compound 0.00999 µM
  viability, T/C: 114%
[31]
  viability, T/C: 93.5%
Second compound 10 µM, first compound 0.0999 µM
  viability, T/C: 52.2%
[33]
  viability, T/C: 5.13%

## O=C(NO)c1cnc(N2CCN(S(=O)(=O)c3ccc4ccccc4c3)CC2)nc1 + Cc1[nH]c2ccc(F)cc2c1-c1nc2c3cccnc3c3ncccc3c2[nH]1
Second compound 0.0316 µM
  IC50: 682 nM
Second compound 0.1 µM
  IC50: 847 nM
Second compound 0.316 µM
  IC50: 1170 nM
Second compound 1 µM
  IC50: 1250 nM
Second compound 3.16 µM
  IC50: 943 nM
Second compound 10 µM
  IC50: 948 nM
[1]
  viability, T/C: 100%
[2]
  viability, T/C: 96.8%
[3]
  viability, T/C: 112%
[4]
  viability, T/C: 23.5%
[5]
  viability, T/C: 1.82%
[6]
  viability, T/C: 0.49%
[7]
  viability, T/C: 104%
[8]
  viability, T/C: 97.4%
[9]
  viability, T/C: 110%
[10]
  viability, T/C: 41%
[11]
  viability, T/C: 1.2%
[12]
  viability, T/C: 0.14%
[13]
  viability, T/C: 103%
[14]
  viability, T/C: 97.2%
[15]
  viability, T/C: 110%
[16]
  viability, T/C: 57.5%
[17]
  viability, T/C: 3.37%
[18]
  viability, T/C: 0.12%
[19]
  viability, T/C: 94.7%
[20]
  viability, T/C: 102%
[21]
  viability, T/C: 115%
[22]
  viability, T/C: 61.3%
[23]
  viability, T/C: 4.62%
[24]
  viability, T/C: 0.3%
[25]
  viability, T/C: 101%
[26]
  viability, T/C: 111%
[27]
  viability, T/C: 111%
[28]
  viability, T/C: 46.9%
[29]
  viability, T/C: 3.24%
[30]
  viability, T/C: 0.41%
[31]
  viability, T/C: 112%
[32]
  viability, T/C: 104%
[33]
  viability, T/C: 115%
[34]
  viability, T/C: 47.1%
[35]
  viability, T/C: 2.05%
[36]
  viability, T/C: 0.25%
